The subject of data set [1] is differentiating ES cells (NPs), PAR-4. Description: S18-induced apoptosis (TUNEL) in NPs after PAR-4 antisense knockdown or PAR-4-RFP overexpression. Type of data set: cell-based, mouse. As to the method:
For construction of PAR-4-REP cDNA, RT-PCR was performed with the oligonucleotide primer pair sense 5′atggcgaccggcggctatcg3′ (SEQ ID NO:14) and antisense 5′ctaccttgtcagctgcccaacaac3′(SEQ ID NO:15), using the first strand cDNA generated from embryoid bodies (EB8 stage) as template for the amplification reaction. The primers were endowed with the restriction enzyme cleaving sites Eco47III (sense) and SaII (antisense) for ligation of the PAR-4 specific amplification product into the multiple cloning site of HcRFP, a vector that encodes a far-red shifted variant of red fluorescent protein (Clontech). Differentiating ES cells at the NP1 stage were transfected with the PAR-4-RFP construct using the lipofectamine 2000 procedure according to the manufacturer's instructions (Invitrogen). The transfected cells were incubated in DMEM F12 (50/50), supplemented with 1×N2 and 20 ng/ml FGF-2, and the TUNEL assay or immunostainings were performed after 48 hours of incubation and NP formation. For depletion of ceramide, differentiating ES cell were incubated with 25 μM fumonisin B1 or 50 nM myriocin 48 hours prior to transfection with the PAR-4-RFP vector, and the inhibitor maintained in the medium throughout the post-transfection period. For induction of apoptosis, the novel ceramide analog S18 (40-100 μM), N-acetyl sphingosine (C2-ceramide, 10-30 μM), or natural ceramide isolated from EBs (0.5-1.5 μM) was added 48 hours after transfection with the PAR-4-RFP cDNA, and the degree of apoptosis quantified after 15-20 hours using TUNEL assays with paraformaldehyde-fixed cells as described above.
(§1) Endogenous expression of PAR-4 was suppressed by transfection of differentiating ES cells at the NP1 stage with 2 nmoles (per well in 24 wells plate) of the morpholino-based antisense oligonucleotide 5′cgatagccgccggtcgccatgttcc3′(SEQ ID NO:16) (see Guo et al., 1998, Nature Med., 4:957-962; Guo et al., 2001 Brain Res, 903:13-25) following the instructions of the manufacturer (GeneTools) in 0.5 ml of serum-free DMEM/F-12, 1XN2 supplemented with 20 ng/ml FGF-2. For induction of apoptosis, the novel ceramide analog S18 (40-100), N-acetyl sphingosine (C2 ceramide, […], or natural ceramide isolated from EBs (0.5-1.5 μM) was added 48 hours after transfection with the anti-PAR-4 morpholino, and the degree of apoptosis quantified after 15-20 hours using TUNEL assays with paraformaldehyde-fixed cells as described above.

The subject of another data set is PAR-4. Nature of the data set: PAR-4 immunoblot after transfection with PAR-4 antisense morpholino. Type of data set: cell-based, mouse. The following applies: NPs transfected with 2 nmoles morpholino. Here is the method:
as §1
The amount of protein was determined following a modified Folin phenol reagent (Lowry) assay essentially as described in Wang and Smith (1975 Anal. Biochem., 63:414-417). Protein extracted with detergent was precipitated according to the Wessel and Fluegge method (Wessel and Flugge, 1984 Anal. Biochem, 138:141-143). SDS-PAGE was performed using the Laemmli method followed by immunoblotting (Laemmri, 1970 Nature, 227:680-685).
(In western blotting, separated proteins are transferred to a membrane and probed.)

A further data set deals with differentiating ES cells. Nature of the data set: Apoptosis (TUNEL) in ceramide-depleted differentiating ES cells and its restoration by ceramide or analogs. Type of data set: cell-based, mouse. The following applies: for reduction of the degree of apoptosis: EB8 and NP2 stage, 25 μM FB1 or 50 nM myriocin for 48 hours. Here is the method:
Fumonisin B1 (FB1) or myriocin-treated (ceramide-depleted) differentiating ES cells were incubated with natural ceramide. To prepare the natural ceramide, 50 mg of EBs or NPs were resuspended in 500 μl of water, and after phase separation with 500 μl of CHCl3/CH3OH (1:1 by vol.) the neutral lipids were recovered from the lower phase. The neutral lipids were evaporated to dryness with a gentle stream of nitrogen and redissolved in 1 ml of CHCl3. The solution was applied to a silicic acid gel column (0.5 g) and fatty acids and cholesterol washed out with another 15 ml of CHCl3 (Dasgupta and Hogan, 2001 J. Lipid Res., 42:301-308). The ceramide fraction was then eluted with 20 ml of CHCl3/acetone (9:1, by vol.), evaporated to dryness, and the residue (approximately 6 nmoles of ceramide) dissolved in 20 μl of ethanol containing 2% dodecane (vol./vol.). Aliquots of 5 μl were mixed with 1 ml of medium, yielding a final concentration of 1.5 μM natural ceramide for induction of apoptosis (Ji et al., 1995 FEBS Lett., 358:211-214).
Differentiating ES cells at the EB8 cells were dissociated and grown for 24 hours on laminin/ornithin-coated cover slips (NP1 stage) in DMEM/F12 (50/50), supplemented with 1×N2 and 20 ng/ml FGF-2. Cells were incubated for 3 hours with 10 μM bromodeoxyuridine (BrdU) and the TUNEL assay or immunostainings performed after 5 hours of incubation. For immunostaining, cells were fixed with 4% paraformaldehyde in phosphate-buffered saline (PBS). Fixed cells were permeabilized with 0.2% Triton X-100 in PBS for 5 minutes at room temperature and immunostaining performed as described previously (Bieberich et al., 2001 J. Biol. Chem., 276:44396-44404). The nuclei were stained by treatment with 2 μg/ml Hoechst 33258 in PBS for 30 minutes at room temperature. Apoptotic nuclei were stained using the fluorescein FragEL TUNEL assay according to instructions of the manufacturer (Oncogene).
The degree of apoptosis in differentiating ES cultures was determined since it was previously proposed that ceramide elevation induces apoptosis in NPs (Bieberch et al., 2001 J. Biol. Chem., 276:44396-44404). […] Apoptosis was elevated at the EB8 stage ([…]), and was highest at the NP2 stage (35+/−5%). […] Apoptosis was restored by the addition of 30 μM N-acetyl sphingosine (C2-ceramide), 80 μM of the novel ceramide analog N-oleoyl serinol (S18), or 1 μM of natural ceramide that was extracted from differentiating ES cells.

Data set [2] deals with differentiating ES-J1 cells. Description: Apoptosis (TUNEL staining, cell death) in differentiating mouse ES cells incubated with ceramide analogs. The conditions noted are these: 15 hours with 75 μM S16 or S18, or 35 μM C2-ceramide. Type of data set: cell-based. As to the method: In vitro neural differentiation of mouse ES cells (ES-J1, ES-D3) followed a serum deprivation protocol as described previously (Hancock, et al., 2000 Biochem. Biophys. Res. Commun., 271: 418-421). The differentiation stages are outlined in FIG. 2. Briefly, ES cells were grown on gamma-irradiated feeder fibroblasts for four days in Knockout DMEM/15% Knockout serum replacement, supplemented with ESGRO (LIF; Chemicon; Cat No. ESG1106) at a concentration of 10^3 units/ml medium. ES cells were then grown for another four days on gelatin-coated bacterial culture dishes without a fibroblast feeder layer, and were then grown for three days in Knockout DMEM/15% heat-inactivated ES qualified Fetal Bovine Serum, supplemented with 10^3 units LIF per ml of medium. Upon trypsinization, ES cells were transferred to bacterial culture dishes without gelatin, and embryoid body (EB) formation was induced for four days in Knockout DMEM/10% heat-inactivated ES qualified FBS without LIF (EB4 stage). On the fifth day, floating and loosely attached EBs were rinsed off and transferred to tissue culture dishes. The EBs were allowed to attach to the tissue culture dish surface by incubation for another 24 hours in Knockout DMEM with 10% heat-inactivated ES qualified fetal bovine serum. Neural differentiation due to serum deprivation was induced by cultivation of the EBs for three days in DME/12 (50/50), supplemented with 1×N2 (Invitrogen/Life Technologies; Cat No. 17502, dilution of 1:100) but without serum (EB8 stage). Serum-deprived EBs were then trypsinized, plated on poly-L-ornithine/laminin-coated tissue culture dishes and grown for four days in DMEM/F12 (50/50), supplemented with N2 and 10 ng/ml FGF-2, but without serum. This incubation period is referred to as neuroprogenitor (NP) stage due to commitment of neuroepithelial precursor cells to neuroprogenitor cells, and/or due to the selective expansion of neural progenitor cells in the FGF-2 containing serum-free medium. These cells have committed during the EB stages and were expanded during the NP stage. NPs grown for 48 hours upon replating of trypsinized EBs were referred to as the NP2 stage. On the fifth day of NP formation, the medium was changed to Neurobasal (Invitrogen/Life Technologies; Cat No. 21103-049), with 5% heat-inactivated FBS, and the cells were incubated for another seven days. During this time, NPs fully differentiate to glial cells and neurons. Cells cultured for 24 hours or 96 hours upon changing the medium were referred to as the D1 or D4 stage, respectively.
ES cells were cultured and differentiated to the EB4, EB8, NP2, or D4 stage following the protocol as described above. The ceramide analog S18 was dissolved in ethanol at a concentration of 100 mM and then added to the cells at a final concentration of 75 μM in medium. The cells at the EB8 stage were incubated for 48 hours in the presence of the ceramide analog and were then transplanted into mouse brains.
Differentiating ES cells were grown on cover slips and fixed with 4% paraformaldehyde in phosphate-buffered saline (PBS). Fixed cells were permeabilized with 0.5% Triton X-100 in PBS for 5 minutes at room temperature and unspecific binding sites were saturated by incubation with 3% ovalbumin in PBS for 1 hour at 37° C. The cover slips were then incubated with 5 μg/ml primary antibody (anti-ceramide clone 15B4 mouse IgM, Alexis; anti-PAR-4 rabbit IgG, Santa Cruz; anti-PCNA rabbit IgG, Santa Cruz; anti-nestin clone 401 rat IgG, BD Pharmingen) in 0.1% ovalbumin/PBS, followed by incubation with the appropriate fluorescence-labeled secondary antibody (5 μg/ml Alexa 546 conjugated anti-mouse IgG, Molecular Probes; Alexa 488 conjugated anti-rabbit IgG, Molecular Probes, Cy3 conjugated anti-mouse IgM, Jackson) for 2 hours at 37° C. The nuclei were stained by treatment with 2 μg/ml Hoechst 33258 in PBS for 30 minutes at room temperature. […]

Data set [3] relates to Mouse neuroblastoma (F-11) cells. Description: Induction of apoptosis in mouse neuroblastoma cells (Hoechst 33258 staining). Type of data set: cell-based. The following applies: 24 hours. Here is the method:
Mouse neuroblastoma (F-11) cells were incubated for 24 hours in 0.1, 0.2, 0.5, or 1.0 μM of laurylgallate (Aldrich). Apoptosis was determined by punctate staining of condensed nuclei with Hoechst 33258 (Sigma, […] medium for 30 minutes at room temperature).

Consider “PAR-4 specific antisense morpholino: morpholino-based antisense oligonucleotide 5′cgatagccgccggtcgccatgttcc3′ (SEQ ID NO:16) (antisense CGATAGCCGCCGGTCGCCATGTTCC; all phosphorodiamidate morpholino (PMO)) [reference compound]”, for which the S18-induced apoptosis entry in data set [1] (NPs transfected with PAR-4 specific antisense morpholino, then S18) is “less than 30%”. The “expression level of PAR-4 relative to untransfected cells” value in the data set with PAR-4 was “about 25%”.

Consider `CCCC[C@@H](C)[C@@H](OC(=O)C[C@@H](CC(=O)O)C(=O)O)[C@H](C[C@@H](C)C[C@H](O)CCCC[C@@H](O)C[C@H](O)[C@H](C)N)OC(=O)C[C@@H](CC(=O)O)C(=O)O` [FB1, Fumonisin B1, reference compound], for which the “reduction of the degree of apoptosis” value in the data set with differentiating ES cells is “about 50%”.

For `CCCCCCCCCCCCC/C=C/[C@@H](O)[C@H](CO)NC(C)=O` [C2-ceramide, N-acetyl sphingosine, reference compound], the “number of TUNEL stained cells” value was found to be 45±10% in data set [2] (EB8 stage) and 70±10% in data set [2] (NP2 stage). Further, in the data set on differentiating ES cells (FB1-treated cells at the NP2 stage), the “dependence of apoptosis on PAR-4 expression” value is listed as “only seen in cells that expressed PAR-4”. In addition, in the data set with differentiating ES cells (NP2 stage, 30 μM C2-ceramide, 80 μM S18, or 1 μM natural ceramide), the “restoration of apoptosis in FB1-treated cells” value is “restored”.

`CCCCCCCCCCCCOC(=O)c1cc(O)c(O)c(O)c1` [laurylgallate, n-dodecyl ester of 3,4,5-trihydroxybenzoic acid] yielded a cells undergoing apoptosis in data set [3] (0.5 μM laurylgallate) of 50%. This compound had a cells undergone apoptosis in data set [3] (1.0 μM laurylgallate) of 100%.

`CCCCCCCCCCCCCCCC(=O)NC(CO)CO` [S16, N-(2-hydroxy-1-(hydroxymethyl)ethyl)-palmitoylamide]: the “number of TUNEL stained cells” value was determined as 45±10% in data set [2] (EB8 stage) and 70±10% in data set [2] (NP2 stage).

As for LEHD-CHO [reference compound], the “effect of pre-incubation on apoptosis inducible with S18 or natural ceramide” value in data set [1] (differentiating ES cells, caspase 9 inhibitor pre-incubation) is recorded as “suppressed apoptosis”.

As to `CCCCCCC(=O)CCCCCC/C=C/C[C@@H](O)[C@H](O)[C@@](N)(CO)C(=O)O` [myriocin, reference compound], the “reduction of the degree of apoptosis” value in the data set with differentiating ES cells is reported as “about 50%”.

Source of the values: patent publication US7445931B2, “Compositions and methods for enrichment of neural stem cells using ceramide analogs” (Bresagen, Inc., priority 2002, dated 2008).
